Here are results for 38 compounds from patent publication US9340577B2, “HLA binding motifs and peptides and their uses” (priority 1992, dated 2016).

The target of assay [1] is B*5301 (Homo sapiens, UniProt P01889, A329T/A93T/A95T/C349S/D201E/D98Y/E176V/E187L/E204Q/E69T/G107R/I218V/K202T/L105A/L119I/N104I/Q94N/R106L/R155S/R180L/S101N/S121R/S35A/S48A/T118I/V127L/V306I/V36M/Y140S/Y91F). The assay is described as follows: biochemical.
Assay [2] deals with B*5401 (Homo sapiens, UniProt P01889, A329T/C349S/D138N/D201E/E176V/E187T/E204Q/E69G/I76V/K202T/L119W/R155S/R180L/S121T/S35A/S48A/V127L/V306I/V36M/Y140L). The assay is described as follows: biochemical.
Assay [3] concerns the target B*0701 (Homo sapiens, UniProt P01889). Briefly: biochemical.
Assay [4] concerns the target A*2902 (Homo sapiens, UniProt P04439, A270S/D101N/D185E/E176V/E277Q/E87Q/F33T/G231S/H175R/I121M/I218V/I322F/K168Q/L300P/L318F/M331R/P208A/P217A/Q86L/T323A/T345S/V100A/V358M). The assay is described as follows: biochemical. The assay is classed as binding.
The target in assay [5] is HLA-A1 (A*0101) (Homo sapiens, UniProt P04439, A114D/A174V/A182V/D101N/D185E/E176A/E190D/L180R/Q94H/R68K/S129P/T187R/V100A/V91M/W191G). The assay is described as follows: biochemical. The format is binding.
Assay [6] addresses A*3002 (Homo sapiens, UniProt P04439, D101N/D140H/D185E/E176R/F33S/G80R/H175R/K168Q/Q94H/R138E/R41S/V100E). The assay is described as follows: biochemical. The assay is classed as binding.
Assay [7] has as its target A*2601 (Homo sapiens, UniProt P04439, A114D/A173T/A270S/D101N/D185E/E277Q/E87N/F33Y/G231S/I121R/I218V/K168Q/L180W/L300P/L318F/P208A/P217A/Q86R/Q94H/R138Q/S129P/T187R/T323A/T345S/V100A/V358M). Briefly: biochemical. The assay is classed as binding.
Assay [8] has as its system HLA-A24. The assay is classed as binding, human.
In assay [9] the target is HLA-A*0201 (HLA-A2.1) (Homo sapiens, UniProt P04439, D140Y/D185E/D98H/E176V/E277Q/G131W/G231S/I119V/I121R/I166T/I218V/L300P/L318F/N151K/N90K/P208A/P217A/Q86G/Q94H/R138H/R169H/T345S). The assay is described as follows: biochemical. The assay is classed as binding.
For assay [10], the target named is B*0702 (B*0701) (Homo sapiens, UniProt P01889). Briefly: biochemical. The assay is classed as binding. The conditions noted are these: Table 25; given as whole numbers, no unit.
Assay [11] deals with peptide-coated Jurkat A2/Kb target cells. On the set-up: species or system mice. The conditions noted are these: mouse, in vivo.
Setting [12] is: B*0701 (nM), Binding of peptides to B7-like supermotif alleles, Table 36.

Like-named read-outs stand apart in the source and are kept apart here. No end group written: not given here.

The term IC50 denotes the midpoint of a concentration-inhibition curve. High values mean weaker potency, low ones greater potency. Regarding `CC[C@H](C)[C@H](NC(=O)[C@@H](NC(=O)[C@H](Cc1ccccc1)NC(=O)[C@H](CC(N)=O)NC(=O)[C@@H](NC(=O)[C@@H](NC(=O)[C@H](CS)NC(=O)[C@@H]1CCCN1C(=O)[C@@H](N)Cc1ccc(O)cc1)[C@@H](C)O)C(C)C)[C@@H](C)O)C(=O)O` [15.047], the IC50 came to 102 nM in assay [1] (B*5301 (nM)) and 89 nM in [2].

In assay [1] (B*5301 (nM)), `CC[C@H](C)[C@H](NC(=O)[C@H](Cc1ccc(O)cc1)NC(=O)[C@H](CC(C)C)NC(=O)[C@H](Cc1c[nH]cn1)NC(=O)CNC(=O)[C@@H](NC(=O)[C@@H]1CCCN1C(=O)[C@@H](N)CC(=O)O)[C@@H](C)CC)C(=O)N[C@@H](Cc1ccccc1)C(=O)O` [15.138] gave an IC50 of 2550 nM.

In [1] (B*5301 (nM)), `CC[C@H](C)[C@H](NC(=O)[C@@H]1CCCN1C(=O)[C@@H](N)CCCCN)C(=O)N[C@H](C(=O)N[C@@H](CCC(N)=O)C(=O)N[C@@H](Cc1ccc(O)cc1)C(=O)N[C@@H](CC(=O)O)C(=O)N[C@@H](CC(N)=O)C(=O)N[C@@H](Cc1ccccc1)C(=O)O)C(C)C` [15.185] gave an IC50 of 2040 nM.

Turning to `CSCC[C@H](NC(=O)[C@H](CC(C)C)NC(=O)[C@H](C)NC(=O)[C@@H]1CCCN1C(=O)[C@@H](N)Cc1ccc(O)cc1)C(=O)N1CCC[C@H]1C(=O)N[C@@H](CC(C)C)C(=O)N[C@@H](Cc1ccc(O)cc1)C(=O)N[C@@H](C)C(=O)O` [16.008], the IC50 was found to be 2580 nM in [1] (B*5301 (nM)), 0.8 nM in assay [2] and 524 nM in [3] (setting [12]).

As for `CC[C@H](C)[C@H](NC(=O)[C@H](Cc1ccc(O)cc1)NC(=O)[C@H](CC(C)C)NC(=O)[C@H](Cc1c[nH]cn1)NC(=O)CNC(=O)[C@@H](NC(=O)[C@@H]1CCCN1C(=O)[C@@H](N)CC(=O)O)[C@@H](C)CC)C(=O)N[C@@H](Cc1ccccc1)C(=O)N[C@@H](C)C(=O)O` [16.201], the IC50 in assay [1] (B*5301 (nM)) stood at 20700 nM; in assay [2], 359 nM.

On to `CC(C)C[C@H](NC(=O)[C@H](CC(=O)O)NC(=O)[C@H](CCC(N)=O)NC(=O)[C@@H](N)[C@@H](C)O)C(=O)N[C@H](C(=O)N[C@@H](CCC(N)=O)C(=O)N[C@@H](CCC(=O)O)C(=O)N[C@@H](CCCCN)C(=O)N[C@@H](Cc1ccc(O)cc1)C(=O)O)C(C)C` [Peptide 83.0099], for which the IC50 was greater than 20000 nM in assay [4], 91 nM in assay [5] and 2100 nM in assay [6].

As for `CC[C@H](C)[C@H](NC(=O)[C@@H]1CCCN1C(=O)[C@H](CC(=O)O)NC(=O)[C@@H](NC(=O)[C@H](CCC(=O)O)NC(=O)[C@@H](N)CCSC)C(C)C)C(=O)NCC(=O)N[C@@H](Cc1c[nH]cn1)C(=O)N[C@@H](CC(C)C)C(=O)N[C@@H](Cc1ccc(O)cc1)C(=O)O` [Peptide 1461.06], the IC50 in [7] is 15 nM; in [4], 307 nM; in assay [5], 371 nM; in [6], 35 nM.

As to `CC[C@H](C)[C@H](NC(=O)[C@@H](NC(=O)[C@@H](NC(=O)[C@@H](N)CS)[C@@H](C)O)[C@@H](C)O)C(=O)N[C@@H](Cc1c[nH]cn1)C(=O)N[C@@H](Cc1ccc(O)cc1)C(=O)N[C@@H](CC(N)=O)C(=O)N[C@@H](Cc1ccc(O)cc1)C(=O)O` [Peptide 9012.0113], the IC50 in [7] was 893 nM; in assay [4], 3120 nM; in assay [5] it was 3480 nM.

For the compound ATDLGLSY [Peptide 9012.0112], the values for the IC50 in assay [7], in [4] and in [5] were 2810 nM, 2200 nM and 9.6 nM, respectively.

On to ATSPAFDNLYY [Peptide 9012.0188], for which the IC50 in [7] came out at 41 nM; in assay [4] it was 9.4 nM; in assay [5], 4.9 nM; in assay [6], 0.9 nM.

CILESCFRAVI: the “binding to HLA-A24 (column 6; no allele head shown for these rows)” value in assay [8] was found to be 0.0008. Besides, the “binding to HLA-A2.1 (column 3; no allele head shown for these rows)” value in assay [9] was 0.0017. Further, in assay [10], the “B*0701 binding” value is listed as 0.

CTDIHYNY [Peptide 9012.0114]: the IC50 worked out at 2190 nM in assay [7], 2550 nM in assay [4] and 68 nM in [5].

As to DMDDLVDAEEY [Peptide 9012.0184], the IC50 in assay [7] is 5660 nM; in [4] it was greater than 20000 nM; in assay [5], 428 nM; in assay [6], 18000 nM.

On to EPIVGAETF [15.091], for which the IC50 in assay [1] (B*5301 (nM)) was 4770 nM.

For the compound ETVPISHLY [Peptide 9012.0132], the IC50 in assay [7] amounted to 0.35 nM; in assay [4], 869 nM; in assay [5] it was 234 nM; in assay [6], 2.2 nM.

With FTQENYLEY [Peptide 9012.0137], the IC50 in assay [7] worked out at 8 nM; in assay [4], 23 nM; in assay [5] it was 13 nM; in assay [6] it was 99 nM.

In the case of FTTCLGLSY [Peptide 9012.0136], the IC50 in assay [7] was determined as 1.3 nM; in [4] it was 2.2 nM; in assay [5], 15 nM; in [6] it was 1300 nM.

For GTDCTTIHYNY [Peptide 9012.0200], the IC50 in assay [7] is 4860 nM; in assay [4], 959 nM; in [5], 29 nM; in assay [6], 76 nM.

Turning to GTDPACYEF [Peptide 9012.0135], the IC50 amounted to 1960 nM in [4], 467 nM in assay [5] and 9840 nM in assay [6].

Regarding GTDVRAMAIY [Peptide 9012.0156], the figures for the half-inhibitory concentration (IC50) in assay [7] and in assay [6] were 965 nM and 1.4 nM, respectively.

As to GTSSFSTTINY [Peptide 9012.0190], the values for the IC50 in assay [7], in [5] and in assay [6] were 1490 nM, 4180 nM and 86 nM, respectively.

As to GTSSLPTTMNY [Peptide 9012.0194], the IC50 stood at 2490 nM in [7], 260 nM in assay [4] and 7.6 nM in assay [6].

As for ITSKASEY [Peptide 9012.0108], the IC50 in assay [7] came out at 3160 nM; in assay [4], 15200 nM; in [5] it was 3290 nM; in assay [6], 165 nM.

As to LLMGTLGIV, the “CTL response in HLA-A2.1 transgenic mice” value in assay [11] was “most immunogenic”.

Regarding LTHFLLLKY [Peptide 9012.0134], the half-maximal inhibitory concentration (IC50) in [7] came out at 369 nM; in [4] it was 1.3 nM; in [5], 32 nM; in assay [6], 3.2 nM.

Turning to LTQENYLEY [Peptide 9012.0133], the IC50 worked out at 30 nM in assay [7], 22 nM in assay [4], 16 nM in assay [5] and 23 nM in [6].

Consider NTDRHSVVVPY [Peptide 9012.0198], for which the IC50 in [7] is 4610 nM; in [4] it was 1720 nM; in assay [6], 9690 nM.

In the case of PTDDPSPLQRY [Peptide 9012.0186], the IC50 in assay [7] is greater than 20000 nM; in assay [4], 937 nM; in [5], 32 nM; in assay [6] it was 440 nM.

For the compound SPLLLSTTEQ [15.226], the results for the IC50 in assay [1] and in assay [3] were 55 nM and 21600 nM, respectively.

For the compound SSDPSQKTY [Peptide 9012.0139], the IC50 was greater than 20000 nM in [7], 9710 nM in [4] and 37 nM in assay [5].

As to SSDSTTINY [Peptide 9012.0130], the IC50 in [5] came to 8.5 nM; in assay [6], 898 nM.

STVPSQKTY [Peptide 9012.0140]: the IC50 in [7] was 420 nM; in assay [4], greater than 20000 nM; in assay [5] it was greater than 20000 nM.

For TMDYPLWSQSY [Peptide 9012.0196], the values for the IC50 in assay [7], in assay [4] and in assay [6] were 419 nM, 721 nM and 99 nM, respectively.

Regarding TPVNSQLGNI [15.246], the IC50 in [1] is 16900 nM. That is a double-digit micromolar value.

On to VTGPGPGY [Peptide 83.0098], for which the IC50 came to 1890 nM in [4], 1840 nM in [5] and 305 nM in assay [6].

With WPLYGNEGL [15.041], the IC50 in [1] (B*5301 (nM)) came to 6890 nM; in assay [3] (setting [12]), 859 nM.

Regarding YTMAGVGSPY [Peptide 9012.0153], the IC50 in assay [7] was 0.32 nM; in assay [4], 2.2 nM; in [5], 9.8 nM; in assay [6], 3.5 nM.

As to YVMAGVGSPY [Peptide 9012.0152], the IC50 is 1.7 nM in assay [7], 3.4 nM in [4], 122 nM in [5] and 12 nM in assay [6].
